Experimental data from patent publication US7763585B2, “Methods for inhibiting tumor cell proliferation” (priority 2003, dated 2010).

Columns and labels:
[1] = target: T1, Stat3:Stat3 (Mus musculus, UniProt P42227); test: EMSA, disruption of Stat3:Stat3 DNA-binding activity in vitro (hSIE probe); type: biochemical; conditions: for Level of DNA-binding activity of Stat3 (EMSA): EGF-stimulated fibroblast nuclear extracts, 30 min preincubation, FIG. 1A
T1 construct: endogenous in cells; host or cells: EGF-stimulated fibroblasts (nuclear extract)
Protocol: (§1) FIGS. 1A-D are photographs showing EMSA analyses of DNA-binding activities and effects of platinum complexes. Nuclear extracts containing activated Stat1, Stat3 and Stat5 are treated with the indicated concentrations of platinum complex ISSCPA-1, ISSCPA-3, ISSCPA-7, or PtCl4 for 30 min at room temperature prior to incubation with radiolabeled oligonucleotide probes. […] Positions of complexes of DNA with STAT, E2F1 or NFκB (p65, p50) in gel are labeled. Control lanes represent nuclear extracts that are not pre-incubated with platinum complexes.
(§2) Nuclear extracts were prepared from cell lines and used for EMSA as previously described (Turkson et al., 1998; Yu et al., 1995; Garcia et al., 1997). In some cases, cells were pre-treated with platinum complexes for the indicated times prior to harvesting. Where cells were stimulated with EGF (6 ng/ml), duration of treatment was 15 min. Nuclear extracts were pre-incubated with compounds for 30 min at room temperature prior to incubation with radiolabeled probe. The ^32P-radiolabeled oligonucleotide probes used are hSIE (high affinity sis-inducible element, m67 variant, 5′-[…]-3′) (SEQ ID NO:1) that binds both Stat1 and Stat3 (Garcia et al., 1997; Wagner et al., 1990), MGFe (mammary gland factor element from the bovine β-casein gene promoter, 5′-AGATTTCTAGGAATTCAA-3′) (SEQ ID NO:2) that binds Stat1 and Stat5 (Gouilleux et al., 1995; Seidel et al., 1995), the NF-κB binding oligo (5′-[…]-3′) (SEQ ID NO:3), and the oligonucleotide sequence from the DHFR promoter that binds E2F1.
(§3) Platinum compounds were evaluated for inhibitory activity against STAT DNA-binding in vitro.

[2] = target: T2, Stat3 (Mus musculus, UniProt P42227); test: Stat3 DNA-binding activity (EMSA) in extracted treated tumors; type: in vivo; conditions: FIG. 8A
T2 construct: from tissue; host or cells: extracted B16 melanoma / CT26 colon tumour tissue from mice
Protocol: (§4) FIGS. 8A-C show tumor regression induced by platinum (IV) chloride. Tumor models in mice using B16 melanoma and CT26 colon tumors both of which harbor constitutively-active Stat3 were treated by intra-tumoral injection with doses of platinum (IV) chloride and tumor sizes monitored every other day for up to 9 days. FIG. 8A is a photograph showing extracted tumor tissues were analyzed for Stat3 activity in in vitro DNA-binding assays and EMSA analysis. FIG. 8B and FIG. 8C show tumor sizes monitored by calipers plotted against days of treatment.
(§5) The antitumor efficacy of platinum (IV) chloride of the invention using mouse models of melanoma and colon tumors was evaluated. Established tumors were directly injected with doses of platinum (IV) chloride and tumor size subsequently monitored. […] In parallel studies, treated tumors were extracted and Stat3 activity determined on the basis of DNA-binding activity analyzed by EMSA. […] Together, the findings support inhibition of constitutively-active STATs by platinum (IV) chloride leads to regression of melanoma and colon tumors.

[3] = tested on: B16 melanoma; test: Mouse model of melanoma tumor, intra-tumoral injection; type: in vivo; conditions: direct intra-tumoral injection, monitored up to 9 days, FIG. 8
Protocol: as §4, §5

[4] = tested on: CT26 colon tumors; test: Mouse model of colon tumor, intra-tumoral injection; type: in vivo; conditions: direct intra-tumoral injection, monitored up to 9 days, FIG. 8
Protocol: as §4, §5

[5] = tested on: Stat3; test: EMSA of nuclear extracts from treated cells with constitutively-activated Stat3; type: cell-based, mouse and human; conditions: Src-transformed fibroblasts and human tumor cells, FIG. 3
Protocol: FIG. 3 is a photograph showing the evaluation of effects of platinum complexes on Stat3 activation analyzed by EMSA. Nuclear extracts prepared from malignant cells that contain constitutively-activated Stat3 and treated with platinum complexes for the indicated times were analyzed by EMSA using hSIE oligonucleotide probe. Extracts were prepared from v-Src-transformed NIH3T3/v-Src; human breast carcinoma MDA-MB-231; MDA-MB-435; and […]. Position of Stat3:DNA complex in gel is shown.
as §2, with “5′-[…]-3′)” for “5′-AGATTTCTAGGAATTCAA-3′)”
The effects of platinum complexes on persistent activation of Stat3 in Src-transformed fibroblasts and human tumor cells were investigated. […] These studies were then extended to evaluate the effects of the platinum complexes on Stat3 transcriptional activity.

[6] = target: T3, Stat1:Stat1 (Mus musculus, UniProt P42225); test: EMSA, disruption of Stat1:Stat1 DNA-binding activity in vitro (hSIE probe); type: biochemical
T3 construct: endogenous in cells; host or cells: EGF-stimulated fibroblasts (nuclear extract)
T3 sequence (P42225 2-749 limits assumed): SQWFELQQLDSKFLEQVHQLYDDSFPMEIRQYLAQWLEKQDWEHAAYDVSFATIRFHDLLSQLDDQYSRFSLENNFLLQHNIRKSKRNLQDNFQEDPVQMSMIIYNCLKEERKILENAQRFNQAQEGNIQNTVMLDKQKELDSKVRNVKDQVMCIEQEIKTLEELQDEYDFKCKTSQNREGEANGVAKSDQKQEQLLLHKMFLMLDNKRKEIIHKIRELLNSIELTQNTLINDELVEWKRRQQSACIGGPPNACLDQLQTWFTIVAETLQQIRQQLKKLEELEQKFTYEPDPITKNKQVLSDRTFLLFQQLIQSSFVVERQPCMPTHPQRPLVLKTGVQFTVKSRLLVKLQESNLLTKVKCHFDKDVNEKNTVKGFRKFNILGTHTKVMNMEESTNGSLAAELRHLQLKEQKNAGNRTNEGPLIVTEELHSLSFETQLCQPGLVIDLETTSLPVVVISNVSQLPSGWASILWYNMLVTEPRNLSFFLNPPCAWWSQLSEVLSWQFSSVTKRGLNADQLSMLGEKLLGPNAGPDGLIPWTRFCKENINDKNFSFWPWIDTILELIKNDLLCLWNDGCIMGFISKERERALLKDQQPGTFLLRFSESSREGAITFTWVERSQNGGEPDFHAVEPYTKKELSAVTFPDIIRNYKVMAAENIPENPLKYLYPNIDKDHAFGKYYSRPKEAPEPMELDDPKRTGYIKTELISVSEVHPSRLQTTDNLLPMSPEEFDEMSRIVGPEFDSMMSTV
Protocol: as §1, §2, §3

[7] = tested on: Stat5; test: EMSA, Stat5 DNA-binding activity in vitro (MGFe probe); type: biochemical, mouse; conditions: FIG. 1B
Protocol: as §1, §2, §3

[8] = target: T4, Stat1:Stat3 (Mus musculus, UniProt P42225+P42227); test: EMSA, disruption of Stat1:Stat3 DNA-binding activity in vitro (hSIE probe); type: biochemical
T4 construct: endogenous in cells; host or cells: EGF-stimulated fibroblasts (nuclear extract)
Protocol: as §1, §2, §3

T1 sequence (P42227 2-770 limits assumed): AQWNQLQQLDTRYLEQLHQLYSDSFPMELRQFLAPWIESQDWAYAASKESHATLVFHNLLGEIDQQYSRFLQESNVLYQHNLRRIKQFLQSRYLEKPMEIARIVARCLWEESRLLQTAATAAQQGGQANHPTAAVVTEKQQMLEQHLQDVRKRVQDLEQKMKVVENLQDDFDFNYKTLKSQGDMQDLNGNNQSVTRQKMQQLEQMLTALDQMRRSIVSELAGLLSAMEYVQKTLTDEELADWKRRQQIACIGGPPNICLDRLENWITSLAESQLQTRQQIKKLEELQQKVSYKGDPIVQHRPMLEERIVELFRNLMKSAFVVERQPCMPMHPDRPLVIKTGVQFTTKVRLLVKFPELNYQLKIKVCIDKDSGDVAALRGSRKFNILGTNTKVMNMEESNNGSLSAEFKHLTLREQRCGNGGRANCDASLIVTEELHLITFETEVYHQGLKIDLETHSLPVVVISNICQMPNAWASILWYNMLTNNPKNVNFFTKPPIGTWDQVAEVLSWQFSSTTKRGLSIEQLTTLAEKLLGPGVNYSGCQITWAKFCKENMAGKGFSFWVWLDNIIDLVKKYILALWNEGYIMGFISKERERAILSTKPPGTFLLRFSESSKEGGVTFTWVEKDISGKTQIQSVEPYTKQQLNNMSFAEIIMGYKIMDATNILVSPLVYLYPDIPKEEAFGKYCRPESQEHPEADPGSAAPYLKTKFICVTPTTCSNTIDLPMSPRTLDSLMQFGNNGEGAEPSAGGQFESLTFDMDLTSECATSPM
T4 sequence (P42227 2-770 limits assumed, one chain of several): as the sequence (P42227 2-770 limits assumed) above
T2 sequence (P42227 whole entry): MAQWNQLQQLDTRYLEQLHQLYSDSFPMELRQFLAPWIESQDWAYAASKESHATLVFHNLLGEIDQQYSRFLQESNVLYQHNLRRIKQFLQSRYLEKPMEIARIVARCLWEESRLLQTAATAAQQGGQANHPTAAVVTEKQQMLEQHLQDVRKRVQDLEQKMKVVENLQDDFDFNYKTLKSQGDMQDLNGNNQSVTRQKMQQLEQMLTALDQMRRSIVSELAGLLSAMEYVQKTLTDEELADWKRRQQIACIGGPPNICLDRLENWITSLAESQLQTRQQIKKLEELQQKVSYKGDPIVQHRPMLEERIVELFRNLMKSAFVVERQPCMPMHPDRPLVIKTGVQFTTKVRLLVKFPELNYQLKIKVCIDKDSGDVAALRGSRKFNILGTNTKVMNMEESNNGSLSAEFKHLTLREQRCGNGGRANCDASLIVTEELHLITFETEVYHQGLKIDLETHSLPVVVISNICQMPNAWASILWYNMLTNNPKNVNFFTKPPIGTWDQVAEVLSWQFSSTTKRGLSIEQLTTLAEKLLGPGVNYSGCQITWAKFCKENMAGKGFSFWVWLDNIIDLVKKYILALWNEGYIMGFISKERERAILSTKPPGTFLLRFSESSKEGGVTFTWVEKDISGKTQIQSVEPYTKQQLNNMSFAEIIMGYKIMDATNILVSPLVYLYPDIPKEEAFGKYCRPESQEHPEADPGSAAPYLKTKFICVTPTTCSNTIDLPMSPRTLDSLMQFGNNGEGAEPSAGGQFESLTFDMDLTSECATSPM

SMILES: [Cl][Pt]([Cl])([Cl])[Cl] [platinum (IV) chloride]
- Level of DNA-binding activity of Stat3 (EMSA) [1]: disrupts DNA-binding activity of Stat3
- Constitutively-active Stat3 in treated tumors (DNA-binding activity by EMSA) [2]: strongly attenuated
- Tumor size, melanoma tumors [3]: complete regression
- Tumor size, colon tumors [4]: complete regression

SMILES: N.N.[Cl][Pt][Cl] [Cisplatin, reference compound]
- Inhibition of constitutive Stat3 activation in treated cells (EMSA of nuclear extracts) [5]: modest or negligible

SMILES: [Cl][Pt]1([Cl])[NH]CC[NH]1 [ISS CPA-3]
- Level of DNA-binding activity of Stat3 (EMSA) [1]: dose-dependent reduction
- IC50 ([1]; nuclear extracts pre-incubated 30 min at room temperature, read-out: IC50 for disruption of STAT DNA-binding activity in vitro, Stat3:Stat3): 5.8 µM
- IC50 [6]: 8.3 µM
- Level of DNA-binding activity of Stat1 (EMSA) ([6]; EGF-stimulated fibroblast nuclear extracts, 30 min preincubation, hSIE probe, FIG. 1A): dose-dependent reduction
- Inhibitory effect on Stat5 DNA-binding activity (EMSA) [7]: much reduced inhibitory effect
- IC50 [8]: 27 µM
- Inhibition of constitutive Stat3 activation in treated cells (EMSA of nuclear extracts) [5]: modest or negligible
